# Reference: PubChem BioAssay (NCI)
#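 Assay format: 96-well plates, 48-hour exposure. Here, GI50 denotes the concentration required for 50% inhibition of growth. TGI denotes the concentration required for complete inhibition of growth.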
# Columns and labels:
# Test in all cases: NCI-60 cell line screen, 48 h
# SK-MEL-5 melanoma = tested on: SK-MEL-5 melanoma
# UACC-257 melanoma = tested on: UACC-257 melanoma
# NCI/ADR-RES ovarian = tested on: NCI/ADR-RES ovarian
# OVCAR-8 ovarian = tested on: OVCAR-8 ovarian
# SF-539 CNS = tested on: SF-539 CNS
# BT-549 breast = tested on: BT-549 breast
# UO-31 renal = tested on: UO-31 renal
# A498 renal = tested on: A498 renal
# MDA-MB-435 = tested on: MDA-MB-435
# OVCAR-4 ovarian = tested on: OVCAR-4 ovarian
# SF-268 CNS = tested on: SF-268 CNS
# COLO 205 colon = tested on: COLO 205 colon
# SF-295 CNS = tested on: SF-295 CNS
# CCRF-CEM leukemia = tested on: CCRF-CEM leukemia
# HL-60(TB) leukemia = tested on: HL-60(TB) leukemia
# HS 578T breast = tested on: HS 578T breast
# OVCAR-5 ovarian = tested on: OVCAR-5 ovarian
# ACHN renal = tested on: ACHN renal
# SR leukemia = tested on: SR leukemia
# CAKI-1 renal = tested on: CAKI-1 renal
# OVCAR-3 ovarian = tested on: OVCAR-3 ovarian
# SK-OV-3 ovarian = tested on: SK-OV-3 ovarian
# 786-0 renal = tested on: 786-0 renal
# M14 melanoma = tested on: M14 melanoma
# LOX IMVI melanoma = tested on: LOX IMVI melanoma
# NCI-H23 lung = tested on: NCI-H23 lung
# KM12 colon = tested on: KM12 colon
# SNB-19 CNS = tested on: SNB-19 CNS
# HOP-62 NSCLC = tested on: HOP-62 NSCLC
# HCT-15 colon = tested on: HCT-15 colon
# TK-10 renal = tested on: TK-10 renal
# SN12C renal = tested on: SN12C renal
# DU-145 prostate = tested on: DU-145 prostate
# A549 NSCLC = tested on: A549 NSCLC
# RXF 393 renal = tested on: RXF 393 renal
# MDA-MB-231 breast = tested on: MDA-MB-231 breast
# IGROV1 ovarian = tested on: IGROV1 ovarian
# MOLT-4 leukemia = tested on: MOLT-4 leukemia
# PC-3 prostate = tested on: PC-3 prostate
# NCI-H522 lung = tested on: NCI-H522 lung
# SK-MEL-2 melanoma = tested on: SK-MEL-2 melanoma
# MCF7 breast = tested on: MCF7 breast
# MALME-3M melanoma = tested on: MALME-3M melanoma
# HT29 colon = tested on: HT29 colon
# SNB-75 CNS = tested on: SNB-75 CNS
# HCT-116 colon = tested on: HCT-116 colon
# K-562 leukemia = tested on: K-562 leukemia
# U251 CNS = tested on: U251 CNS
# HCC-2998 colon = tested on: HCC-2998 colon
# SW-620 colon = tested on: SW-620 colon
# NCI-H460 lung = tested on: NCI-H460 lung
# NCI-H226 lung = tested on: NCI-H226 lung
# T-47D breast = tested on: T-47D breast
# SK-MEL-28 melanoma = tested on: SK-MEL-28 melanoma
# RPMI-8226 leukemia = tested on: RPMI-8226 leukemia
# EKVX NSCLC = tested on: EKVX NSCLC
# HOP-92 NSCLC = tested on: HOP-92 NSCLC
# UACC-62 melanoma = tested on: UACC-62 melanoma
smiles,measurement,setting,value
Cc1nn2c(/C=C3/C(=O)Nc4cc(Cl)ccc43)c(-c3ccccc3)nc2s1,GI50,SK-MEL-5 melanoma,3.17 µM
same,TGI,SK-MEL-5 melanoma,> 100 µM
same,GI50,UACC-257 melanoma,2.65 µM
same,TGI,UACC-257 melanoma,8.32 µM
same,GI50,NCI/ADR-RES ovarian,3.54 µM
same,TGI,NCI/ADR-RES ovarian,> 100 µM
same,GI50,OVCAR-8 ovarian,2.89 µM
same,TGI,OVCAR-8 ovarian,> 100 µM
same,GI50,SF-539 CNS,1.71 µM
same,TGI,SF-539 CNS,3.46 µM
same,GI50,BT-549 breast,6.63 µM
same,TGI,BT-549 breast,> 100 µM
same,GI50,UO-31 renal,1.59 µM
same,TGI,UO-31 renal,3.53 µM
same,GI50,A498 renal,15.5 µM
same,TGI,A498 renal,72 µM
same,GI50,MDA-MB-435,3.72 µM
same,TGI,MDA-MB-435,> 100 µM
same,GI50,OVCAR-4 ovarian,1.59 µM
same,TGI,OVCAR-4 ovarian,3.39 µM
same,GI50,SF-268 CNS,6.81 µM
same,TGI,SF-268 CNS,> 100 µM
same,GI50,COLO 205 colon,74.4 µM
same,TGI,COLO 205 colon,> 100 µM
same,GI50,SF-295 CNS,11.1 µM
same,TGI,SF-295 CNS,38.1 µM
same,GI50,CCRF-CEM leukemia,4.35 µM
same,TGI,CCRF-CEM leukemia,> 100 µM
same,GI50,HL-60(TB) leukemia,> 100 µM
same,TGI,HL-60(TB) leukemia,> 100 µM
same,GI50,HS 578T breast,3.52 µM
same,TGI,HS 578T breast,> 100 µM
same,GI50,OVCAR-5 ovarian,> 100 µM
same,TGI,OVCAR-5 ovarian,> 100 µM
same,GI50,ACHN renal,1.54 µM
same,TGI,ACHN renal,3.08 µM
same,GI50,SR leukemia,3.09 µM
same,TGI,SR leukemia,> 100 µM
same,GI50,CAKI-1 renal,1.87 µM
same,TGI,CAKI-1 renal,4.38 µM
same,GI50,OVCAR-3 ovarian,1.89 µM
same,TGI,OVCAR-3 ovarian,3.68 µM
same,GI50,SK-OV-3 ovarian,14.3 µM
same,TGI,SK-OV-3 ovarian,> 100 µM
same,GI50,786-0 renal,2.15 µM
same,TGI,786-0 renal,4.37 µM
same,GI50,M14 melanoma,6.54 µM
same,TGI,M14 melanoma,> 100 µM
same,GI50,LOX IMVI melanoma,2.41 µM
same,TGI,LOX IMVI melanoma,6.02 µM
same,GI50,NCI-H23 lung,3.68 µM
same,TGI,NCI-H23 lung,> 100 µM
same,GI50,KM12 colon,59.1 µM
same,TGI,KM12 colon,> 100 µM
same,GI50,SNB-19 CNS,10.7 µM
same,TGI,SNB-19 CNS,> 100 µM
same,GI50,HOP-62 NSCLC,4.4 µM
same,TGI,HOP-62 NSCLC,17.9 µM
same,GI50,HCT-15 colon,4.79 µM
same,TGI,HCT-15 colon,> 100 µM
same,GI50,TK-10 renal,2.34 µM
same,TGI,TK-10 renal,4.14 µM
same,GI50,SN12C renal,2.84 µM
same,TGI,SN12C renal,11.1 µM
same,GI50,DU-145 prostate,4.02 µM
same,TGI,DU-145 prostate,18.2 µM
same,GI50,A549 NSCLC,3.28 µM
same,TGI,A549 NSCLC,14.9 µM
same,GI50,RXF 393 renal,2.27 µM
same,TGI,RXF 393 renal,5.97 µM
same,GI50,MDA-MB-231 breast,1.99 µM
same,TGI,MDA-MB-231 breast,5.62 µM
same,GI50,IGROV1 ovarian,2.07 µM
same,TGI,IGROV1 ovarian,4.62 µM
same,GI50,MOLT-4 leukemia,4.11 µM
same,TGI,MOLT-4 leukemia,> 100 µM
same,GI50,PC-3 prostate,13.8 µM
same,TGI,PC-3 prostate,> 100 µM
same,GI50,NCI-H522 lung,1.8 µM
same,TGI,NCI-H522 lung,4.11 µM
same,GI50,SK-MEL-2 melanoma,7.07 µM
same,TGI,SK-MEL-2 melanoma,46.7 µM
same,GI50,MCF7 breast,5.84 µM
same,TGI,MCF7 breast,> 100 µM
same,GI50,MALME-3M melanoma,1.89 µM
same,TGI,MALME-3M melanoma,3.91 µM
same,GI50,HT29 colon,11.1 µM
same,TGI,HT29 colon,> 100 µM
same,GI50,SNB-75 CNS,1.6 µM
same,TGI,SNB-75 CNS,8.44 µM
same,GI50,HCT-116 colon,1.85 µM
same,TGI,HCT-116 colon,3.46 µM
same,GI50,K-562 leukemia,4.27 µM
same,TGI,K-562 leukemia,> 100 µM
same,GI50,U251 CNS,2.68 µM
same,TGI,U251 CNS,8.5 µM
same,GI50,HCC-2998 colon,> 100 µM
same,TGI,HCC-2998 colon,> 100 µM
same,GI50,SW-620 colon,3 µM
same,TGI,SW-620 colon,> 100 µM
same,GI50,NCI-H460 lung,3.72 µM
same,TGI,NCI-H460 lung,> 100 µM
same,GI50,NCI-H226 lung,4.56 µM
same,TGI,NCI-H226 lung,63.7 µM
same,GI50,T-47D breast,1.75 µM
same,TGI,T-47D breast,4.04 µM
Cc1c(-c2ccnc(N)n2)c2c(n1Cc1ccccc1)C(=O)c1ccccc1C2=O,GI50,SK-MEL-28 melanoma,17.3 µM
same,TGI,SK-MEL-28 melanoma,> 100 µM
same,GI50,SK-MEL-5 melanoma,12.8 µM
same,TGI,SK-MEL-5 melanoma,27.8 µM
same,GI50,UACC-257 melanoma,23.2 µM
same,TGI,UACC-257 melanoma,> 100 µM
same,GI50,NCI/ADR-RES ovarian,13.3 µM
same,TGI,NCI/ADR-RES ovarian,> 100 µM
same,GI50,BT-549 breast,2.99 µM
same,TGI,BT-549 breast,8.4 µM
same,GI50,UO-31 renal,3.28 µM
same,TGI,UO-31 renal,21.8 µM
same,GI50,RPMI-8226 leukemia,> 100 µM
same,TGI,RPMI-8226 leukemia,> 100 µM
same,GI50,MDA-MB-435,4.84 µM
same,TGI,MDA-MB-435,24.2 µM
same,GI50,OVCAR-4 ovarian,20.7 µM
same,TGI,OVCAR-4 ovarian,> 100 µM
same,GI50,EKVX NSCLC,7.11 µM
same,TGI,EKVX NSCLC,41.2 µM
same,GI50,COLO 205 colon,15.5 µM
same,TGI,COLO 205 colon,43.9 µM
same,GI50,SF-295 CNS,3.12 µM
same,TGI,SF-295 CNS,15 µM
same,GI50,CCRF-CEM leukemia,> 100 µM
same,TGI,CCRF-CEM leukemia,> 100 µM
same,GI50,HS 578T breast,2.62 µM
same,TGI,HS 578T breast,8.05 µM
same,GI50,OVCAR-5 ovarian,47.4 µM
same,TGI,OVCAR-5 ovarian,> 100 µM
same,GI50,ACHN renal,8.34 µM
same,TGI,ACHN renal,36.8 µM
same,GI50,SR leukemia,1.84 µM
same,TGI,SR leukemia,4.52 µM
same,GI50,CAKI-1 renal,4.66 µM
same,TGI,CAKI-1 renal,52.9 µM
same,GI50,OVCAR-3 ovarian,2.83 µM
same,TGI,OVCAR-3 ovarian,21.3 µM
same,GI50,HOP-92 NSCLC,> 100 µM
same,TGI,HOP-92 NSCLC,> 100 µM
same,GI50,SK-OV-3 ovarian,18.2 µM
same,TGI,SK-OV-3 ovarian,77.4 µM
same,GI50,786-0 renal,5.02 µM
same,TGI,786-0 renal,71 µM
same,GI50,M14 melanoma,16.2 µM
same,TGI,M14 melanoma,> 100 µM
same,GI50,LOX IMVI melanoma,1.98 µM
same,TGI,LOX IMVI melanoma,6.65 µM
same,GI50,KM12 colon,8.82 µM
same,TGI,KM12 colon,30.4 µM
same,GI50,SNB-19 CNS,18.1 µM
same,TGI,SNB-19 CNS,> 100 µM
same,GI50,HOP-62 NSCLC,13.9 µM
same,TGI,HOP-62 NSCLC,43.6 µM
same,GI50,HCT-15 colon,4.8 µM
same,TGI,HCT-15 colon,> 100 µM
same,GI50,TK-10 renal,17.3 µM
same,TGI,TK-10 renal,66.8 µM
same,GI50,SN12C renal,> 100 µM
same,TGI,SN12C renal,> 100 µM
same,GI50,DU-145 prostate,9.82 µM
same,TGI,DU-145 prostate,41.2 µM
same,GI50,A549 NSCLC,> 100 µM
same,TGI,A549 NSCLC,> 100 µM
same,GI50,RXF 393 renal,11.3 µM
same,TGI,RXF 393 renal,38.2 µM
same,GI50,MDA-MB-231 breast,1.73 µM
same,TGI,MDA-MB-231 breast,30.2 µM
same,GI50,IGROV1 ovarian,4.84 µM
same,TGI,IGROV1 ovarian,54.7 µM
same,GI50,PC-3 prostate,49.1 µM
same,TGI,PC-3 prostate,> 100 µM
same,GI50,NCI-H522 lung,> 100 µM
same,TGI,NCI-H522 lung,> 100 µM
same,GI50,SK-MEL-2 melanoma,11.3 µM
same,TGI,SK-MEL-2 melanoma,47.7 µM
same,GI50,UACC-62 melanoma,> 100 µM
same,TGI,UACC-62 melanoma,> 100 µM
same,GI50,HCT-116 colon,3.7 µM
same,TGI,HCT-116 colon,16.6 µM
same,GI50,K-562 leukemia,2.92 µM
same,TGI,K-562 leukemia,44.4 µM
same,GI50,U251 CNS,3.91 µM
same,TGI,U251 CNS,36.2 µM
same,GI50,HCC-2998 colon,12.9 µM
same,TGI,HCC-2998 colon,35.8 µM
same,GI50,SW-620 colon,6.82 µM
same,TGI,SW-620 colon,> 100 µM
same,GI50,NCI-H460 lung,6.42 µM
same,TGI,NCI-H460 lung,26.5 µM
same,GI50,T-47D breast,47.8 µM
same,TGI,T-47D breast,> 100 µM
